The source of these data is US7273848B2, “Apolipoprotein A-I agonists and their use to treat dyslipidemic disorders” (priority 1997, dated 2007).

Non-standard residues stand in square brackets, D forms with d. Residues, ends and D or L forms follow the SMILES beside them. 1Nal = N[C@@H](Cc1cccc2ccccc12)C(=O)O; Aib = CC(C)(N)C(=O)O

Series [1] has as its target T1, LCAT (purified from human plasma) (Homo sapiens, UniProt P04180).
T1 construct: from tissue; host or cells: human plasma
T1 sequence (P04180 25-440): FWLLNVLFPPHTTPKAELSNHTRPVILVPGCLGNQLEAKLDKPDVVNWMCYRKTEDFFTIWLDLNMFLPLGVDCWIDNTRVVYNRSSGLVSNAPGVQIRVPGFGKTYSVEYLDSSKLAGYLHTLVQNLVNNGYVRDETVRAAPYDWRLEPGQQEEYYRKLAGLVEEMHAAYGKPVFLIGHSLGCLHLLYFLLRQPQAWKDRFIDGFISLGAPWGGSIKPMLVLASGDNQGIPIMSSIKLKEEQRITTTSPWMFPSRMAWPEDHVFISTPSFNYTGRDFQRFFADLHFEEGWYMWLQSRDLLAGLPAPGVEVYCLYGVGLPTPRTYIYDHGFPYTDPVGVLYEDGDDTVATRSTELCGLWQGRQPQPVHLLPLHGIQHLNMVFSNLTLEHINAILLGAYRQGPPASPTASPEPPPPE
In words: LCAT activation assay. Format: biochemical. As to conditions: LCAT activation as compared with native human ApoA-I (= 100%), equivalent masses. In short, it runs like this: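 Substrate SUVs of EPC or POPC with 14C-cholesterol (20:1 molar ratio), in 10 mM Tris, 0.14 M NaCl, 1 mM EDTA, pH 7.4, were preincubated with peptide or equal mass of plasma ApoA-I. Reaction started with human plasma LCAT; activation was measured as cholesterol-to-ester conversion relative to ApoA-I (100%).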

Series [2] is described as follows: Circular dichroism helicity determination. Format: physicochemical. As to conditions: percent helicity; for He (%) TFE: 5 μM peptide, 90% vol TFE; for He (%) TFE / He (%) SUVs: 37° C.; for He (%) free: unbound peptide 5 μM in 5 mM phosphate buffer, pH 7.4, 37° C.; for He (%) mics: peptide-micelle complexes, Ri=100, 37° C.; for He (%) SUVs: peptide-SUV complexes (20:1 EPC:Chol., Ri=30 and Ri=50). In outline: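 Far-UV CD (190–260 nm) at 37° C on 5 μM peptide in 5 mM phosphate pH 7.4, free, with EPC:Chol 20:1 SUVs (Ri 30 or 50), lysophosphatidylcholine micelles (Ri 100) or 90% TFE. Spectra converted to molar ellipticity per residue; helicity from 222 nm ellipticity or CONTIN fitting to reference spectra, ±5%.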
In general terms: Circular dichroism is widely used to follow secondary structure.

As for `CC(C)C[C@@H](NC(=O)[C@H](N)CCCCN)C(=O)N[C@H](CCCCN)C(=O)N[C@H](CCC(N)=O)C(=O)N[C@H](CCCCN)C(=O)N[C@H](CC(C)C)C(=O)N[C@H](C)C(=O)N[C@H](CCC(=O)O)C(=O)N[C@H](CC(C)C)C(=O)N[C@H](CC(C)C)C(=O)N[C@H](CCC(=O)O)C(=O)N[C@H](CC(N)=O)C(=O)N[C@H](CC(C)C)C(=O)N[C@H](CC(C)C)C(=O)N[C@H](CCC(=O)O)C(=O)N[C@H](CCCNC(=N)N)C(=O)N[C@H](Cc1ccccc1)C(=O)N[C@H](CC(C)C)C(=O)N[C@H](CC(=O)O)C(=O)N[C@H](CC(C)C)C(=O)N[C@@H](C(=O)N1CCC[C@@H]1C(=O)O)C(C)C` [compound 107, klkqklaellenllerfldlvp], in series [1], the “ACTIVITY (%) LCAT” value stood at 0%. Moreover, in series [2], the “He (%) TFE” value turned out to be 77%.

As for `CC(C)C[C@H](NC(=O)[C@H](C)NC(=O)[C@H](CCC(=O)O)NC(=O)[C@H](CC(C)C)NC(=O)C(C)(C)NC(=O)[C@H](CCC(=O)O)NC(=O)[C@H](CC(N)=O)NC(=O)[C@H](CC(C)C)NC(=O)[C@H](CC(C)C)NC(=O)[C@H](Cc1c[nH]c2ccccc12)NC(=O)[C@H](CCCNC(=N)N)NC(=O)[C@H](Cc1ccccc1)NC(=O)[C@H](CC(C)C)NC(=O)[C@H](CC(=O)O)NC(=O)[C@H](CC(C)C)NC(=O)[C@@H](NC(=O)[C@@H]1CCCN1)C(C)C)C(=O)N[C@@H](CCCCN)C(=O)N[C@@H](CCC(N)=O)C(=O)N[C@@H](CCCCN)C(=O)N[C@@H](CC(C)C)C(=O)N[C@@H](CCCCN)C(=O)O` [compound 108, PVLDLFRWLLNEXLEALKQKLK] (H-PVLDLFRWLLNE[Aib]LEALKQKLK-OH), the “ACTIVITY (%) LCAT” value in series [1] is 0%. Moreover, in series [2], the “He (%) TFE” value stood at 54%, the “He (%) free” value amounted to 28% and the “He (%) mics” value came out at 55%.

For `CC(C)C[C@H](NC(=O)[C@H](CCCCN)NC(=O)[C@H](CCC(N)=O)NC(=O)[C@H](CCCCN)NC(=O)[C@H](CC(C)C)NC(=O)[C@H](Cc1cccc2ccccc12)NC(=O)[C@H](CCC(=O)O)NC(=O)[C@H](CC(C)C)NC(=O)[C@H](CC(C)C)NC(=O)[C@H](CCC(=O)O)NC(=O)[C@H](CC(N)=O)NC(=O)[C@H](CC(C)C)NC(=O)[C@H](CC(C)C)NC(=O)[C@H](CCC(=O)O)NC(=O)[C@H](CCCNC(=N)N)NC(=O)[C@H](Cc1ccccc1)NC(=O)[C@H](CC(C)C)NC(=O)[C@H](CC(=O)O)NC(=O)[C@H](CC(C)C)NC(=O)[C@@H](NC(=O)[C@@H]1CCCN1)C(C)C)C(=O)N[C@@H](CCCCN)C(=O)O` [peptide 1, PVLDLFRELLNELLEZLKQKLK] (H-PVLDLFRELLNELLE[1Nal]LKQKLK-OH), in series [1], the “ACTIVITY (%) LCAT” value amounted to 120%. In addition, in series [2], the “He (%) TFE” value stood at 69%, the “He (%) free” value worked out at 77%, the “He (%) SUVs” value was determined as 81% and the “He (%) mics” value worked out at 85%.

As for `CC(C)C[C@H](NC(=O)[C@H](CCCCN)NC(=O)[C@H](CCC(N)=O)NC(=O)[C@H](CCCCN)NC(=O)[C@H](Cc1cccc2ccccc12)NC(=O)[C@H](C)NC(=O)[C@H](CCC(=O)O)NC(=O)[C@H](CC(C)C)NC(=O)[C@H](CC(C)C)NC(=O)[C@H](CCC(=O)O)NC(=O)[C@H](CC(N)=O)NC(=O)[C@H](CC(C)C)NC(=O)[C@H](CC(C)C)NC(=O)[C@H](CCC(=O)O)NC(=O)[C@H](CCCNC(=N)N)NC(=O)[C@H](Cc1ccccc1)NC(=O)[C@H](CC(C)C)NC(=O)[C@H](CC(=O)O)NC(=O)[C@H](CC(C)C)NC(=O)[C@@H](NC(=O)[C@@H]1CCCN1)C(C)C)C(=O)N[C@@H](CCCCN)C(=O)O` [peptide 10, PVLDLFRELLNELLEAZKQKLK] (H-PVLDLFRELLNELLEA[1Nal]KQKLK-OH), the “ACTIVITY (%) LCAT” value in series [1] worked out at 79%. In series [2], the “He (%) TFE” value is given as 71%, the “He (%) free” value was determined as 60%, the “He (%) SUVs” value came out at 70% and the “He (%) mics” value is on record as 87%.

`CC(C)C[C@H](NC(=O)[C@H](C)NC(=O)[C@H](CCC(=O)O)NC(=O)[C@H](CC(C)C)NC(=O)[C@H](CC(C)C)NC(=O)[C@H](CCC(=O)O)NC(=O)[C@H](CC(N)=O)NC(=O)[C@H](CC(C)C)NC(=O)[C@H](CC(C)C)NC(=O)[C@H](CCC(=O)O)NC(=O)[C@H](CCCNC(=N)N)NC(=O)[C@H](Cc1ccccc1)NC(=O)[C@H](CC(C)C)NC(=O)[C@H](CC(=O)O)NC(=O)[C@H](CC(C)C)NC(=O)[C@@H](NC(=O)[C@@H]1CCCN1)C(C)C)C(=O)N[C@@H](CCCN)C(=O)N[C@@H](CCC(N)=O)C(=O)N[C@@H](CCCN)C(=O)N[C@@H](CC(C)C)C(=O)N[C@@H](CCCN)C(=O)O` [peptide 14, PVLDLFRELLNELLEALOQOLO]: the “ACTIVITY (%) LCAT” value in series [1] is given as 61%. In series [2], the “He (%) free” value turned out to be 70%, the “He (%) SUVs” value amounted to 80% and the “He (%) mics” value came out at 96%.

`CC(C)C[C@H](NC(=O)[C@H](C)NC(=O)[C@H](CCC(=O)O)NC(=O)[C@H](CC(C)C)NC(=O)C(C)(C)NC(=O)[C@H](CCC(=O)O)NC(=O)[C@H](CC(N)=O)NC(=O)[C@H](CC(C)C)NC(=O)[C@H](CC(C)C)NC(=O)[C@H](CCC(=O)O)NC(=O)[C@H](CCCNC(=N)N)NC(=O)[C@H](Cc1ccccc1)NC(=O)[C@H](Cc1ccccc1)NC(=O)[C@H](CC(=O)O)NC(=O)[C@H](CC(C)C)NC(=O)[C@@H](NC(=O)[C@@H]1CCCN1)C(C)C)C(=O)N[C@@H](CCCCN)C(=O)N[C@@H](CCC(N)=O)C(=O)N[C@@H](CCCCN)C(=O)N[C@@H](CC(C)C)C(=O)N[C@@H](CCCCN)C(=O)O` [peptide 25, PVLDFFRELLNEXLEALKQKLK] (H-PVLDFFRELLNE[Aib]LEALKQKLK-OH): the “ACTIVITY (%) LCAT” value in series [1] turned out to be 51%. In series [2], the “He (%) TFE” value is reported as 93%, the “He (%) free” value was 46% and the “He (%) mics” value is on record as 82%.

As for `CC(C)C[C@H](NC(=O)[C@H](C)NC(=O)[C@H](CC(=O)O)NC(=O)[C@H](CC(C)C)NC(=O)[C@H](CC(C)C)NC(=O)[C@H](CCCNC(=N)N)NC(=O)[C@H](CCC(=O)O)NC(=O)[C@H](CC(C)C)NC(=O)[C@H](CC(C)C)NC(=O)[C@H](CC(N)=O)NC(=O)[C@H](CCC(=O)O)NC(=O)[C@H](Cc1ccccc1)NC(=O)[C@H](CC(C)C)NC(=O)[C@H](CCC(=O)O)NC(=O)[C@H](CC(C)C)NC(=O)[C@@H](NC(=O)[C@H]1CCCN1)C(C)C)C(=O)N[C@@H](CCC(N)=O)C(=O)N[C@@H](CCCCN)C(=O)N[C@@H](CCCCN)C(=O)N[C@@H](CC(C)C)C(=O)N[C@@H](CCCCN)C(=O)O` [peptide 144] (H-[dP]VLELFENLLERLLDALQKKLK-OH), the “ACTIVITY (%) LCAT” value in series [1] is 111%. Also, in series [2], the “He (%) TFE” value was 95%, the “He (%) free” value came to 89% and the “He (%) mics” value is 88%.

For “Ac-DWLKAFYDKVAEKLKEAF-NH2 [compound 240, reference compound]”, the “ACTIVITY (%) LCAT” value in series [1] was 10%. Moreover, in series [2], the “He (%) TFE” value is recorded as 57%, the “He (%) free” value stood at 16%, the “He (%) SUVs” value is reported as 59% and the “He (%) mics” value is 68%.

As to “Ac-EWLKAFYEKVLEKLKELF-NH2 [peptide 238, reference compound]”, the “ACTIVITY (%) LCAT” value in series [1] turned out to be 19%. For the same compound, in series [2], the “He (%) TFE” value came to 58%, the “He (%) free” value was determined as 49%, the “He (%) SUVs” value is recorded as 60% and the “He (%) mics” value came out at 72%.

As for “Ac-PLLDLFRELLEELKQKLK-NH2 [compound 197]”, the “ACTIVITY (%) LCAT” value in series [1] is reported as 81%. For the same compound, in series [2], the “He (%) TFE” value is reported as 69%, the “He (%) free” value was 43% and the “He (%) mics” value is recorded as 70%.

For “Ac-PVLDLFKELLEELKQKLK-NH2 [compound 192]”, the “ACTIVITY (%) LCAT” value in series [1] stood at 100%. Also, in series [2], the “He (%) TFE” value stood at 56% and the “He (%) free” value is listed as 36%.
